Here are results for seven compounds from patent publication US6294526A, “Use of flavone derivatives for induction of β-lactam-sensitivity of MRSA” (priority 1998, dated 2001).

The test system of test [1] is MRSA. As to the kind of experiment: antibacterial activity of antibiotics alone and in the presence of apigenin (4 μg/ml), MRSA. Format: cell-based, methicillin-resistant Staphylococcus aureus. Particulars: Staphylococcus aureus, MRSA, 20 h, MRSA. As to the method:
(§1) The screening of the present invention may be carried out according to the agar plate dilution method designated by the Japan Society of Chemotherapy (Chemotherapy 29(1), 76-79 (1981)). Mueller-Hinton agar base semi-synthetic medium may be used for a plate culture medium for a sensitivity test together with an inoculating bacteria solution which may be prepared by culturing bacteria to be tested at 37° C. for 20 hours diluted with 8.5% by isotonic sodium chloride solution to 10^6 CFU/ml. Diluted β-lactam solutions are prepared by two times serial dilution. 1 ml of the diluted β-lactam solution and 1 ml of a predetermined concentration of a sample to be tested are added to 8 ml of the plate culture medium for a sensitivity test. To the resultant plate culture medium for sensitivity test, the bacteria are inoculated using a microplanter (SAKUMASEISAKUSYO Co.), cultured for 20 hours at 37° C. followed by assessing for a minimum inhibition concentration (MIC).
(D) Then use of 4 μg/ml of apigenin and other antibiotics at the same time was studied. The antibiotics are penicillin , ampicillin, cephalothin, cefoxitin, cefuroxime, cefotaxime, vancomycin, streptomycin, chloramphenicol, kanamycin, erythromycin, nalixic acid and tetracycline.

The next test concerns MRSA No. 5. As to the kind of experiment: effect of flavone on antibacterial activity of antibiotics against MRSA No. 5 in bouillon (broth microdilution). It is filed as cell-based, methicillin-resistant Staphylococcus aureus. The settings on record: for MIC: Staphylococcus aureus, MRSA, 20 h; for inhibitory effect on resistance of MRSA No.5 (in words): in the presence of flavone 0.5 mM. How it is done:
Alternatively, the screening of the present invention may be carried out according to the broth microdilution method designated by the Japan Society of Chemotherapy (Chemotherapy 38(1), 102-105 (1990)). Muellar-Hinton broth is used as a culture medium for the sensitivity test, and 50 mg/ml of calcium(Ca) ion, 25 mg/ml of magnesium(Mg) ion, and 2% sodium chloride (NaCl) are added thereto. An inoculating bacteria solution may be prepared by culturing bacteria to be tested in Mueller-Hinton broth at 37° C. for 20 hours and diluting with Mueller-Hinton broth to 10^5 CFU/ml final concentration of inoculating bacteria. Diluted β-lactam solution is prepared by two times serial dilution series. 10 μl of the diluted β-lactam solution and 10 μl of a predetermined concentration of a sample of bacteria to be tested are added to mix with 80 μl of the culture medium for the sensitivity test. To the resultant plate culture medium for sensitivity test, the inoculating bacteria are added and culturing is carried out for 20 hours at 37° C. and then assessment for a minimum inhibition concentration (MIC) is carried out. A minimum inhibition concentration means the minimum concentration of β-lactam at which growth of bacteria is not recognized by the naked eye.
(G) Antibacterial activity of 6 β-lactams, that is, cephalothin, cefuroxime, cefotaxime, cefoxitin, streptomycin and vancomycin, against MRSA in the presence of 0.5 mM flavone was studied in bouillon.
Muellar-Hinton broth was used as a culture medium for the sensitivity test, and 50 mg/ml of calcium (Ca) ion, 25 mg/ml of maqnesium (Mg) ion, 2% sodium chloride (NaCl) were added thereto. An inoculating bacteria solution was prepared by culturing bacteria to be tested with Mueller-Hinton broth at 37° C. for 20 hours and diluting with Mueller-Hinton broth to 10^5 CFU/ml final concentration of inoculating bacteria. Diluted β-lactam solutions were prepared in two times serial dilutions starting from 10 mM. Ten microliters of the diluted β-lactam solution and 10 μl of 5 mM of flavone were mixed with 80 μl of the culture medium for the sensitivity test in a microplate having U-shaped wells and samples of bacteria to be tested were added thereto. The mixture was cultured 20 hours at 37° C. and then assessed for minimum inhibition concentration (MIC). Minimum inhibition concentration means minimum concentration of a β-lactum at which growth of bacteria is inhibited to the extent that bacteria is not recognized by the naked eye.

Another test has as its system MRSA and MSSA. As to the kind of experiment: antibacterial activity (MIC) by agar plate dilution method, MRSA and MSSA strains together. Format: cell-based, Staphylococcus aureus. Particulars: MRSA and MSSA; for antibacterial activity (in words): Table 2; for MIC: Staphylococcus aureus, 20 h, "in each case", read-out: MIC values (text summary of Table 2). How it is done: as §1, with “(MIC). […]” for “(MIC).”
Antibacterial activity is determined for flavones including flavone, flavonol, flavanone, isoflavone, catechin and calchone, as follows:
(§2) Flavones were dissolved in methanol and the others were dissolved in 0.1 N NaOH. A method for determination of antibacterial activity is, as described above, an agar plate dilution method designated by the Japan Society of Chemotherapy (Chemotherapy 29(1), 76-79 (1981)) to determine MIC value. MIC80 is a concentration at which a strain is prohibited to proliferate by 80% and MIC50 is a concentration at which a strain is prohibited to proliferate by 50%.

The subject of the next test is MSSA. As to the kind of experiment: antibacterial activity (MIC) by agar plate dilution method, MSSA strains. It is filed as cell-based, Methicillin-sensitive Staphylooccus aureus. The settings on record: Staphylococcus aureus, 20 h, MSSA (7 strains); for MIC50: read-out: MIC50. As to the method:
as §1
(§3) (A) Antibacterial activities of ether extract from Scutellaria barbata, SB-1 (isolated from Scutellaria barbata), apigenin (authentic sample) and luteolin (authentic sample) were shown in Table 1.
as §2

Test [2] deals with MRSA. The experiment in a line: antibacterial activity (MIC) by agar plate dilution method, MRSA strains. It is filed as cell-based, methicillin-resistant Staphylococcus aureus. The settings on record: Staphylococcus aureus, 20 h, MRSA (20 strains); for MIC50: read-out: MIC50. How it is done:
as §1, §3, §2

Where [3] appears, read: antibiotic with Apigenin (4 μg/ml).
Setting [4] is: Concentration of flavone 0.5 mM.

The structures appear in SMILES notation. In brackets after ≈: the same amount, converted by molar mass. Where two headings read alike, the source gives them in different places.

In the case of `CO/N=C(\C(=O)N[C@@H]1C(=O)N2C(C(=O)O)=C(COC(N)=O)CS[C@H]12)c1ccco1` [Cefuroxime, cefuroxime], the MIC50 (as a rule, an inhibitory concentration at the 50% level, which refers to growth in some studies and to a panel of isolates in others) is more than 250 µg/mL with MRSA [1] (Antibiotics alone, read-out: MIC50) and more than 250 µg/mL in the test with MRSA [1] (antibiotic with Apigenin (4 μg/ml), read-out: MIC50). The MIC (as a rule, the least concentration at which growth counts as inhibited) is more than 1000 µM in the test on MRSA No. 5 (Concentration of flavone 0 mM, read-out: MIC) and 7.8 µM (≈ 3.31 µg/mL) with MRSA No. 5 (Concentration of flavone 0.5 mM, read-out: MIC). Further, in the test with MRSA No. 5, the “inhibitory effect on resistance of MRSA No.5 (in words)” value is on record as “showed inhibitory effect on resistance of MRSA No.5”.
Consider `CC(=O)OCC1=C(C(=O)O)N2C(=O)[C@@H](NC(=O)Cc3cccs3)[C@H]2SC1` [Cephalothin, cephalothin], for which the MIC was 0.98 to 250 µg/mL in the test with MRSA [1] (Antibiotics alone), 0.98 to 250 µg/mL with MRSA [1] (setting [3]), 500 µM (≈ 198 µg/mL) in the test on MRSA No. 5 (Concentration of flavone 0 mM) and 1.95 µM (≈ 0.773 µg/mL) in the test on MRSA No. 5 (setting [4]). The MIC50 with MRSA [1] (Antibiotics alone) and in the test on MRSA [1] (setting [3]) was 125 µg/mL throughout. The “inhibitory effect on resistance of MRSA No.5 (in words)” value in the test with MRSA No. 5 is “showed inhibitory effect on resistance of MRSA No.5”.
Take `O=C1C[C@@H](c2ccc(O)c(O)c2)Oc2cc(O)cc(O)c21` [Eriodictyol, eriodictyol]: the “antibacterial activity (in words)” value with MRSA and MSSA is on record as “showed antibacterial activity”. The minimal inhibitory concentration (MIC) in the test with MRSA and MSSA was found to be 250 µg/mL (≈ 867 µM); with MSSA (MSSA, range over strains, read-out: MIC), 250 µg/mL (≈ 867 µM); with MRSA [2] (MRSA, range over strains, read-out: MIC) it was 250 µg/mL (≈ 867 µM). For the same compound, the MIC50 in the test on MSSA and in the test with MRSA [2] was 250 µg/mL (≈ 867 µM) throughout.
On to `O=c1c(O)c(-c2ccc(O)cc2)oc2cc(O)cc(O)c12` [Kaempferol, kaempferol], for which the “antibacterial activity (in words)” value in the test with MRSA and MSSA is “showed antibacterial activity”; in the test with MRSA and MSSA (listed as kaemferol), “showed activity”. The MIC in the test with MRSA and MSSA amounted to 250 µg/mL (≈ 873 µM). The MIC50 with MSSA and with MRSA [2] was 250 µg/mL (≈ 873 µM) each time.
For the compound `Cc1onc(-c2ccccc2)c1C(=O)N[C@@H]1C(=O)N2[C@@H]1SC(C)(C)[C@@H]2C(=O)O` [Oxacillin, oxacillin], the MIC50 in the test on MRSA [1] (Antibiotics alone) and with MRSA [1] (setting [3]) was 250 µg/mL in each case. The MIC against MRSA No. 5 (Concentration of flavone 0 mM) was 1000 µM (≈ 401 µg/mL); in the test on MRSA No. 5 (setting [4]), 15.6 µM (≈ 6.26 µg/mL).
`[H]/N=C(/N)N[C@H]1[C@H](O)[C@@H](O)[C@H](O[C@@H]2O[C@@H](C)[C@](O)(C=O)[C@H]2O[C@@H]2O[C@@H](CO)[C@H](O)[C@@H](O)[C@@H]2NC)[C@@H](N/C(N)=N\[H])[C@@H]1O` [Streptomycin, streptomycin]: the minimal inhibitory concentration (MIC) with MRSA [1] (Antibiotics alone) is 7.8 to 15.6 µg/mL; in the test with MRSA [1] (setting [3]), 2 to 15.6 µg/mL; against MRSA No. 5 (setting [4]) it was less than 0.98 µM. Moreover, the MIC50 came out at 7.8 µg/mL in the test on MRSA [1] (Antibiotics alone) and 7.6 µg/mL in the test on MRSA [1] (setting [3]). In addition, the “inhibitory effect on resistance of MRSA No.5 (in words)” value in the test on MRSA No. 5 is given as “appeared not to be showed”.
Regarding `CN[C@H](CC(C)C)C(=O)N[C@H]1C(=O)N[C@@H](CC(N)=O)C(=O)N[C@H]2C(=O)N[C@H]3C(=O)N[C@H](C(=O)N[C@H](C(=O)O)c4cc(O)cc(O)c4-c4cc3ccc4O)[C@H](O)c3ccc(c(Cl)c3)Oc3cc2cc(c3O[C@@H]2O[C@H](CO)[C@@H](O)[C@H](O)[C@H]2O[C@H]2C[C@](C)(N)[C@H](O)[C@H](C)O2)Oc2ccc(cc2Cl)[C@H]1O` [Vancomycin, vancomycin], the MIC in the test on MRSA [1] (Antibiotics alone) is 0.98 to 2 µg/mL; with MRSA [1] (setting [3]), 0.49 to 0.98 µg/mL; in the test with MRSA No. 5 (setting [4]), less than 0.98 µM. The results for the MIC50 in the test on MRSA [1] (Antibiotics alone) and in the test with MRSA [1] (setting [3]) were 0.98 µg/mL and 0.49 µg/mL, respectively. Also, the “inhibitory effect on resistance of MRSA No.5 (in words)” value in the test with MRSA No. 5 is given as “appeared not to be showed”.
